From patent US9175282B2, “Cellobiose 2-epimerase, its preparation and uses” (HAYASHIBARA CO., LTD., priority 2009, dated 2015)

Key:
[1] = test system: recombinant cellobiose 2-epimerase; assay: Formation of isomerized saccharides from various saccharides, effect of the amount of enzyme; type: biochemical, Caldicellulosiruptor saccharolyticus ATCC43494; settings: for Content of isomerized saccharide in the reaction mixture (%): Epilactose / Content of isomerized saccharide in the reaction mixture (%): Lactulose: GC analysis
Experimental: Each of them was dissolved into 20 mM acetate buffer (pH 6.0), admixed with the purified preparation of the recombinant cellobiose 2-epimerase, obtained by the method in Experiment 4-4, and followed the enzyme reaction under the conditions of 10% (w/v) substrate concentration, 60° C. for 72 hours. The amount of enzyme was set to 130 or 500 units/g-substrate when monosaccharide was used as the substrate, and to 1 or 130 units/g-substrate when disaccharide or trisaccharide was used as the substrate. Each reaction mixture was heated at 100° C. for 10 minutes to stop the reaction and subjected to HPLC analysis to determine the contents of isomerized saccharide, on a dry solid basis. The contents of epilactose and lactulose in the reaction mixture obtained using lactose as substrate were determined by GC analysis described in Experiment 1-2.

[2] = test system: recombinant cellobiose 2-epimerase; assay: Substrate specificity of cellobiose 2-epimerase by TLC; type: biochemical, Caldicellulosiruptor saccharolyticus ATCC43494; parameters: key to Action: −: No product is detected; ±: Some products are slightly detected; +: Some products are detected; ++: Some products are clearly detected; settings: for Action: 2% (w/w) substrate, MOPS buffer pH 8.0, 500 units/g-substrate, 60° C., 24 hours, product spot on TLC; for Action of the enzyme on the saccharide: summary of Table 3
Experimental: Substrate specificity of the enzyme was investigated by allowing the purified preparation of the recombinant cellobiose 2-epimerase, obtained by the method of Experiment 4-4, to act on various saccharides. Substrate solutions were prepared by dissolving D-glucose, D-xylose, D-allose, D-ribose, D-galactose, D-fructose, D-mannose, D-psicose, D-tagatose, L-sorbose, L-rhamnose, L-ribose, trehalose, kojibiose, nigerose, isomaltose, neotrehalose, gentiobiose, lactose, sucrose, maltulose, palatinose, maltose, maltotriose, maltotetraose, maltopentaose, maltohexaose, maltoheptaose, cellobiose, cellotriose, cellotetraose, selaginose, isomaltosyl-glucoside, isomaltotriose, panose, isopanose, erlose, maltitol, maltotriitol, methyl-α-glucoside, methyl-β-glucoside, D-glucosamine, D-galactosamine, D-glucuronic acid, N-acetyl-glucosamine, or N-acetyl-galactosamine into MOPS buffer (pH 8.0) to give a final concentration of 2% (w/w) of saccharide and 40 mM buffer.
Then, each of the resulting substrate solutions was further admixed with 500 units/g-substrate, on a dry solid basis, of the purified preparation of recombinant cellobiose 2-epimerase, obtained by the method in Experiment 4-4, and followed by the enzyme reaction at 60° C. for 24 hours. After stopping the reaction by heating the reaction mixture at 100° C. for 10 minutes, each reaction mixture was subjected to TLC analysis under the conditions in Experiment 1-2 to examine the saccharides in each mixture before and after the reaction. The substrate specificity of the enzyme was judged by investigating whether the spot of the reaction product except for the substrate is detected in the TLC chromatogram or not, and the degree of the strength of the visualized spot.

[3] = 1 unit/g-substrate, 10% (w/v) substrate, pH 6.0, 60° C., 72 hours
[4] = 130 units/g-substrate, 10% (w/v) substrate, pH 6.0, 60° C., 72 hours

Row | Compound | Action [2] | Action of the enzyme on the saccharide [2] | other results
1 | OC[C@H]1O[C@@H](O[C@H]2[C@H](O)[C@@H](O)C(O)O[C@@H]2CO)[C@H](O)[C@@H](O)[C@H]1O (some centres unmarked) [Lactose] | ++ | relatively strong specificity | Content of isomerized saccharide in the reaction mixture (%): Epilactose [1, 3]: 32.0%; Content of isomerized saccharide in the reaction mixture (%): Lactulose [1, 3]: 0.0%; Content of isomerized saccharide in the reaction mixture (%): Epilactose [1, 4]: 12.8%; Content of isomerized saccharide in the reaction mixture (%): Lactulose [1, 4]: 57.5%; Action of the enzyme on the substrate ([1]; summary of Table 5): relatively specifically acted
2 | OC[C@@H](O)[C@@H](O[C@H]1O[C@H](CO)[C@@H](O)[C@H](O)[C@H]1O)[C@H](O)[C@@H](O)CO [Maltitol] | − |  | 
3 | OC[C@H]1O[C@H](O[C@H]2[C@H](O)[C@@H](O)[C@H](O)O[C@@H]2CO)[C@H](O)[C@@H](O)[C@@H]1O [Maltose] | + | acted on | Content of isomerized saccharide in the reaction mixture (%): Epimaltose [1, 4]: 22.2%; Content of isomerized saccharide in the reaction mixture (%): Maltulose [1, 4]: 7.7%
4 | OC[C@H]1O[C@H](O[C@H]2[C@H](O)[C@@H](O)[C@@H](O[C@H]3[C@H](O)[C@@H](O)[C@@H](O[C@H]4[C@H](O)[C@@H](O)C(O)O[C@@H]4CO)O[C@@H]3CO)O[C@@H]2CO)[C@H](O)[C@@H](O)[C@@H]1O (some centres unmarked) [Maltotetraose] | ± | slightly acted on | 
5 | OC[C@@H](O)[C@@H](O[C@H]1O[C@H](CO)[C@@H](O[C@H]2O[C@H](CO)[C@@H](O)[C@H](O)[C@H]2O)[C@H](O)[C@H]1O)[C@H](O)[C@@H](O)CO [Maltotriitol] | − |  | 
6 | CO[C@H]1O[C@H](CO)[C@@H](O)[C@H](O)[C@H]1O [Methyl-α-glucoside] | − |  | 
7 | CO[C@@H]1O[C@H](CO)[C@@H](O)[C@H](O)[C@H]1O [Methyl-β-glucoside] | − |  | 
8 | CC(=O)N[C@H]1C(O)O[C@H](CO)[C@H](O)[C@@H]1O (some centres unmarked) [N-Acetyl-galactosamine] | − |  | 
9 | CC(=O)N[C@H]1C(O)O[C@H](CO)[C@@H](O)[C@@H]1O (some centres unmarked) [N-Acetyl-glucosamine] | − |  | 
10 | OC[C@H]1O[C@@H](O[C@H]2O[C@H](CO)[C@@H](O)[C@H](O)[C@H]2O)[C@H](O)[C@@H](O)[C@@H]1O [Neotrehalose] | − |  | 
11 | OC[C@H]1O[C@H](O[C@H]2[C@H](O)[C@@H](CO)OC(O)[C@@H]2O)[C@H](O)[C@@H](O)[C@@H]1O (some centres unmarked) [Nigerose] | − |  | 
12 | OC[C@H]1O[C@H](OC[C@H]2OC(O)(CO)[C@@H](O)[C@@H]2O)[C@H](O)[C@@H](O)[C@@H]1O (some centres unmarked) [Palatinose] | − |  | 
13 | OC[C@H]1O[C@H](OC[C@H]2O[C@H](O[C@H]3[C@H](O)[C@@H](O)C(O)O[C@@H]3CO)[C@H](O)[C@@H](O)[C@@H]2O)[C@H](O)[C@@H](O)[C@@H]1O (some centres unmarked) [Panose] | − |  | 
14 | OC[C@H]1O[C@H](O[C@H]2O[C@H](CO)[C@@H](O)[C@H](O)[C@H]2O[C@H]2O[C@H](CO)[C@@H](O)[C@H](O)[C@H]2O)[C@H](O)[C@@H](O)[C@@H]1O [Selaginose] | − |  | 
15 | OC[C@H]1O[C@@](CO)(O[C@H]2O[C@H](CO)[C@@H](O)[C@H](O)[C@H]2O)[C@@H](O)[C@@H]1O [Sucrose] | − |  | 
16 | OC[C@H]1O[C@H](O[C@H]2O[C@H](CO)[C@@H](O)[C@H](O)[C@H]2O)[C@H](O)[C@@H](O)[C@@H]1O [Trehalose] | − |  | 
17 | Isomaltosyl-glucoside | − |  | 
18 | Maltoheptaose | ± | slightly acted on | 
19 | Maltohexaose | ± | slightly acted on | 
20 | Maltopentaose | ± | slightly acted on | 
21 | Maltotriose | + | acted on | Content of isomerized saccharide in the reaction mixture (%): Epimaltotriose [1, 4]: 23.3%
22 | Maltulose | ± | slightly acted on | 
